The values that follow come from US20050032646A1, “Agents for the regulation of gametophytic self-incompatibility and a control method for the breakdown of gametophytic self-incompatibility using the agents” (priority 2002, published 2005).

The test system of data set [1] is style-specific S RNase of Fuji apple. The data set can be described thus: Inhibition of the activity of a style-specific S RNase by the agents. To be noted: optical density at 260 nm (A260), agent 2.0 mM, no treatment 1.10. Type of data set: biochemical. As to the method:
Inhibition of S RNase activity by an agent of the present invention was measured as follows: The standard solution of 500 μL of 10 mM sodium phosphate (pH 7.0) with an agent (2.0 mM), and 500 μL of torula yeast rRNA (5 mg/mL) was pre-incubated for 10 min at 37° C. To the substrate solution, the 20 μL of the style-specific S RNase (200 ng) of Fuji apple was added, then the solution was incubated for 30 min at 37° C. A fraction of 200 μL was collected and 40 μL of stop buffer (ice-cold 25% HCIO4, 0.75% uranyl acetate) was added, then mixed and centrifuged at 12,000 rpm for 5 min. And 50 μL of the supernatant was diluted with 950 μL of dd H2O, then the solution was centrifuged and measured the optical density at 260 nm (A260) (Singh A. et al., Plant Physilolgy, 96: 61-68,1991).

The subject of another data set is Safinia purple. The data set can be described thus: Breakdown of self-incompatibility and seed production of Safinia purple. Type of data set: in vivo, Safinia purple (petunia). As to the method: To establish the application method of the SI suppressing agent for the seed production, a field experiment was performed with Safinia purple ( the Solanaceae, a petunia developed by Suntory Ltd).
To a 15 cm-radii round pot, were added fine soil (pH 5.6) and 2 gr of complex fertilizer (including N, P, K 8% each) and they were mixed well. Safinia purple of 10 cm height were planted and raised in a green house for 2 weeks. At the period of 30 % bloom the diluted aqueous solutions of Zn(II) propionate or Cu(II) propionate agent were micro-sprayed enough to wet a flower and a style(3 ml). Two days after treatment of the agent, self-pollen was pollinated to its own style and the seed production was investigated. The experiments were repeated twice.

The next data set relates to 20-Century pear. Briefly: Breakdown of the self-incompatibility in 20-century pear (fertilization rate, field). The data set is classed as in vivo. To be noted: 600 μM, sprayed 5 and 2 days before full bloom, 14 days after the treatment. The procedure: In a field test, 20-Century pear (the Rosaceae) which has self-incompatibility system was isolated single-genetically by covering up selected branches or whole plants with a fine-meshed net to exclude any pollinating insects. The aqueous of 600 μM solution of an agent of the present invention was treated enough to get-wet flowers with a micro-spray at 9:00-11:00 AM. The agent solution was micro-sprayed 2 times; first at 5 days before full bloom and second at 2 days before full bloom. The reference was artificial cross-pollination at full bloom. The fertilization rate was investigated 14 days after the treatment and compared with no treatment and artificial cross-pollination.

Another data set deals with Hongro apple flowers. The data set can be described thus: Side-effect of the agents toward Hongro apple flowers. The data set is classed as in vivo. Also on record: key: 0: no side-effect is observed, and it is same as no treatment of the agents; 1: the side-effect are observed in flowers, but they recover to normal fruition in a week; 2: a fall-out of flowers and 10% decrease in fruition rate; 3: about 40% loss; 4: 60% loss; 5: a severe loss in fruition. The procedure: To investigate the side-effect of the agent, various concentrations of the agents were treated to the flowers of Hongro apple.

The next data set concerns Hongro apple. Briefly: Breakdown of the self-incompatibility in Hongro apple (self-pollination rate, field). Type of data set: in vivo. To be noted: 25 days after the treatment. The procedure: In the field application experiment, Hongro apple (the Rosaceae) which has a very low self-pollination rate (<5%) was isolated single-genetically by covering up whole plants with a fine-meshed net to exclude any pollinating insects. The agent of the present invention was treated enough to get-wet flowers at various concentrations with a micro-spray at 9:00-11:00 AM. The target of the agent was the first-blooming primary apple flower. The self-pollination rate was investigated 25 days after the treatment and compared with no treatment and artificial cross-pollination.

Take `CCC(=O)[O-].CCC(=O)[O-].[Cu+2]` [Cu(II) Propionate]: in data set [1], the “OD (2.0 mM)” value stood at 0.73. Besides, the “seed production relative (%) to control” value in the data set on Safinia purple (concn 10 μM) was determined as 485.7%; in the data set on Safinia purple (concn 30 μM) it was 1714.3%; in the data set on Safinia purple (concn 100 μM), 2228.6%; in the data set with Safinia purple (concn 300 μM), 1471.4%; in the data set with Safinia purple (concn 1000 μM), 2342.9%. The “self-pollination pollination ratio (%)” value in the data set on Safinia purple (concn 10 μM) came to 47.6%; in the data set with Safinia purple (concn 30 μM) it was 52.1%; in the data set on Safinia purple (concn 100 μM) it was 82.6%; in the data set on Safinia purple (concn 300 μM), 74.3%; in the data set on Safinia purple (concn 1000 μM), 76.2%. Also, the “self-pollination relative (%) to control” value stood at 2000% with Safinia purple (concn 10 μM); 2500% with Safinia purple (concn 30 μM); 3800% in the data set on Safinia purple (concn 100 μM); 2600% with Safinia purple (concn 300 μM); 3200% with Safinia purple (concn 1000 μM). Besides, the fertilization rate in the data set on 20-Century pear worked out at 53%. Further, the side-effect index is given as 0 with Hongro apple flowers (1.0 mM), 0 in the data set on Hongro apple flowers (5.0 mM) and 1 in the data set on Hongro apple flowers (20.0 mM).

As to `CCC(=O)[O-].CCC(=O)[O-].[Zn+2]` [Zn(II) Propionate], the self-pollination rate with Hongro apple (concentration 0.01 mM) is on record as >10%; in the data set with Hongro apple (concentration 0.03 mM), >30%; in the data set with Hongro apple (concentration 0.10 mM), >50%; with Hongro apple (concentration 0.30 mM), >50%; with Hongro apple (concentration 1.0 mM), >50%. In data set [1], the “OD (2.0 mM)” value was 0.69. Also, the “seed production relative (%) to control” value with Safinia purple (concn 10 μM) was determined as 514.3%; in the data set on Safinia purple (concn 30 μM) it was 442.9%; in the data set on Safinia purple (concn 100 μM), 1057.1%; in the data set with Safinia purple (concn 300 μM), 1128.6%; with Safinia purple (concn 1000 μM), 1628.6%. The “self-pollination pollination ratio (%)” value in the data set on Safinia purple (concn 10 μM) was 29.4%; in the data set on Safinia purple (concn 30 μM) it was 42.4%; with Safinia purple (concn 100 μM), 47.1%; in the data set with Safinia purple (concn 300 μM), 63.6%; in the data set on Safinia purple (concn 1000 μM), 64.5%. Further, the “self-pollination relative (%) to control” value was determined as 1000% with Safinia purple (concn 10 μM); 1400% in the data set with Safinia purple (concn 30 μM); 1600% in the data set on Safinia purple (concn 100 μM); 2100% in the data set on Safinia purple (concn 300 μM); 2000% with Safinia purple (concn 1000 μM). In the data set on 20-Century pear, the fertilization rate was found to be 45%. In addition, the side-effect index in the data set with Hongro apple flowers (1.0 mM) worked out at 0; with Hongro apple flowers (5.0 mM) it was 0; in the data set on Hongro apple flowers (20.0 mM), 1.
